According to patent publication US9096558B2, “N-sulfonylbenzamide compounds” (Pfizer Limited, priority 2010, dated 2015):
Where a name gives a salt, the structure may show the parent alone.

Target: T1, Nav1.7 (or SCN9A) channel (Homo sapiens, UniProt Q15858)
T1 construct: expressed in transfected cells
Assay: Nav1.7 (hSCN9A) PatchXpress electrophysiology assay
Format: cell-based
Details: estimated IC50 calculated from single point electrophysiology data; PatchXpress platform; HEK cells stably expressing hSCN9A; held at V1/2 of inactivation; read-out: Nav1.7 EIC50
Method: The ability of the compounds of formula (I) to block the Nav1.7 (or SCN9A) channel were measured using the assay described below.
Human Embryonic Kidney (HEK) cells were transfected with an hSCN9A construct using lipofectamine reagent (Invitrogen), using standard techniques. Cells stably expressing the hSCN9A constructs were identified by their resistance to G-418 (400 μg/ml). Clones were screened for expression using the whole-cell voltage-clamp technique.
HEK cells stably transfected with hSCN9A were maintained in DMEM medium supplemented with 10% heat-inactivated fetal bovine serum and 400 μg/ml G-418 in an incubator at 37° C. with a humidified atmosphere of 10% CO2. For HTS, cells were harvested from flasks by trypsinization and replated in an appropriate multi-well plate (typically 96 or 384 wells/plate) such that confluence would be achieved within 24 hours of plating. For electrophysiological studies, cells were removed from the culture flask by brief trypsinization and re-plated at low density onto glass cover slips. Cells were typically used for electrophysiological experiments within 24 to 72 hours after plating.
Cover slips containing HEK cells expressing hSCN9A were placed in a bath on the stage of an inverted microscope and perfused (approximately 1 ml/minutes) with extracellular solution of the following composition: 138 mM NaCl, 2 mM CaCl2, 5.4 mM KCl, 1 mM MgCl2, 10 mM glucose, and 10 mM HEPES, pH 7.4, with NaOH. […] The osmolarity of the extracellular and intracellular solutions was 300 mOsm/kg and 295 mOsm/kg, respectively. All recordings were made at room temperature (22-24° C.) using AXOPATCH 200B amplifiers and PCLAMP software (Axon Instruments, Burlingame, Calif.).
hSCN9A currents in HEK cells were measured using the whole-cell configuration of the patch-clamp technique (Hamill et al., 1981). Uncompensated series resistance was typically 2 to 5 mega ohms and >85% series resistance compensation was routinely achieved. As a result, voltage errors were negligible and no correction was applied. Current records were acquired at 20 to 50 KHz and filtered at 5 to 10 KHz.
HEK cells stably transfected with hSCN9A were viewed under Hoffman contrast optics and placed in front of an array of flow pipes emitting either control or compound-containing extracellular solutions. All compounds were dissolved in dimethyl sulfoxide to make 10 mM stock solutions, which were then diluted into extracellular solution to attain the final concentrations desired. […] The voltage-dependence of inactivation was determined by applying a series of depolarizing prepulses (8 sec long in 10 mV increments) from a negative holding potential. The voltage was then immediately stepped to 0 mV to assess the magnitude of the sodium current. Currents elicited at 0 mV were plotted as a function of prepulse potential to allow estimation of the voltage at which 50% of the channels were inactivated (midpoint of inactivation or V½). Compounds were tested for their ability to inhibit hSCN9A sodium channels by activating the channel with a 20 msec voltage step to 0 mV following an 8 second conditioning prepulse to the empirically determined V½. Compound effect (% inhibition) was determined by difference in current amplitude before and after application of test compounds. For ease of comparison, “estimated IC-50” (EIC50) values were calculated from single point electrophysiology data by the following equation, (tested concentration, uM)×(100-% inhibition/% inhibition). Inhibition values <20% and >80% were excluded from the calculation.
Electrophysiological assays were conducted with PatchXpress 7000 hardware and associated software (Molecular Devices Corp). All assay buffers and solutions were identical to those used in conventional whole-cell voltage clamp experiments described above. hSCN9A cells were grown as above to 50%-80% confluency and harvested by trypsinization. […]

T1 sequence (Q15858 whole entry): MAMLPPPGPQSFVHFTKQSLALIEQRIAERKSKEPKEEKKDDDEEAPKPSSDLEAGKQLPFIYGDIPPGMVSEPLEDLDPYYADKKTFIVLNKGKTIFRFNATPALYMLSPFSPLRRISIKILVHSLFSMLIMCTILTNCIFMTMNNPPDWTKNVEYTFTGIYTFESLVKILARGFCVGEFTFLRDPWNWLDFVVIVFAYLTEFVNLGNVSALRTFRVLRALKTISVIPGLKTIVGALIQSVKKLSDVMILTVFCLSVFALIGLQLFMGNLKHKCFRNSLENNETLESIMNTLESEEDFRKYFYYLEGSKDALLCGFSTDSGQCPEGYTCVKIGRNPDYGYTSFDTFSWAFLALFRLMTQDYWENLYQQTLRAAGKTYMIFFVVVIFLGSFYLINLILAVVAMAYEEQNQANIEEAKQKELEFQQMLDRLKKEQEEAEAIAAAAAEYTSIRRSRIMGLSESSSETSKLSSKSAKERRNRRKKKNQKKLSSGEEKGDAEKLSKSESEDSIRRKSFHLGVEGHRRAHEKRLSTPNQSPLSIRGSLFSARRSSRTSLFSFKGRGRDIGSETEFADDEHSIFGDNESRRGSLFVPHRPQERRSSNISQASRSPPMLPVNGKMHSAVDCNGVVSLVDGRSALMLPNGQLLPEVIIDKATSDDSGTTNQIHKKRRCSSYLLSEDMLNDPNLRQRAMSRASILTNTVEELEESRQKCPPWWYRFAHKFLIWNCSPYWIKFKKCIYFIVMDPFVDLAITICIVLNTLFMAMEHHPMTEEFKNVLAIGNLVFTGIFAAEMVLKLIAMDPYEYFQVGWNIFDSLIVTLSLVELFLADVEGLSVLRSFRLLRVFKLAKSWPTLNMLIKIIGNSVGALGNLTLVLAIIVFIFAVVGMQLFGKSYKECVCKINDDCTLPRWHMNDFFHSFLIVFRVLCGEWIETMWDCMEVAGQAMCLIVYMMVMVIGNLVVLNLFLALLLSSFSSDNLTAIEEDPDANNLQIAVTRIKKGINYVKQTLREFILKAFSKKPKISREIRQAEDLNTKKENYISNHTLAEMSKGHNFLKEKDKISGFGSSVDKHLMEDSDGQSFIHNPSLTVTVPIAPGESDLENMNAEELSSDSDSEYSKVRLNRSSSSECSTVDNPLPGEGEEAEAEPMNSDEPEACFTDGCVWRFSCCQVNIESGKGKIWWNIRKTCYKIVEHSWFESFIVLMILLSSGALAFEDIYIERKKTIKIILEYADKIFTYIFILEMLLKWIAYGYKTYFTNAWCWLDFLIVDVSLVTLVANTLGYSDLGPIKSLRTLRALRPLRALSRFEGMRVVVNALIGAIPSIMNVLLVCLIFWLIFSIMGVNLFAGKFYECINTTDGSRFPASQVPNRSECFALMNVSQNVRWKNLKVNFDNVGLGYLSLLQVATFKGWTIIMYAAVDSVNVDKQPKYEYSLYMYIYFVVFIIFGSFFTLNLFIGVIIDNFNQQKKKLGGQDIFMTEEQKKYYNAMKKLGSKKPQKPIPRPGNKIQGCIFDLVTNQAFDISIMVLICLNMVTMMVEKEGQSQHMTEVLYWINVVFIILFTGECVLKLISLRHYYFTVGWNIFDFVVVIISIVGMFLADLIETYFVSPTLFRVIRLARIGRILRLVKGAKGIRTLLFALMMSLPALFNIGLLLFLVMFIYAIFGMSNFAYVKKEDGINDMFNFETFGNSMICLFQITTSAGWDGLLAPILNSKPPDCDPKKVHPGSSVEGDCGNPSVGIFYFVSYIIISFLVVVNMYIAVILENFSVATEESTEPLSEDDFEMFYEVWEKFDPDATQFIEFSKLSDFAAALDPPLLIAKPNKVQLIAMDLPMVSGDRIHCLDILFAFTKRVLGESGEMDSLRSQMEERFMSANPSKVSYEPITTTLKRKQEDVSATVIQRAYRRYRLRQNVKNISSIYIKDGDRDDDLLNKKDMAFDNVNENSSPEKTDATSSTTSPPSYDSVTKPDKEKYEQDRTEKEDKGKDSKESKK

| IC50 [µM] | SMILES |
| --- | --- |
| 0.19 | N#Cc1cc(S(=O)(=O)Nc2ncns2)ccc1Sc1ccc(C(F)(F)F)cc1 [Example 14, 3-cyano-N-1,2,4-thiadiazol-5-yl-4-{[4-(trifluoromethyl)phenyl]thio}benzenesulfonamide] |
| 0.92 | N#Cc1cc(S(=O)(=O)Nc2ncns2)ccc1Sc1ccccc1F [Example 15, 3-Cyano-4-[(2-fluorophenyl)thio]-N-1,2,4-thiadiazol-5-ylbenzenesulfonamide] |
| 0.93 | N#Cc1cc(S(=O)(=O)Nc2ncns2)ccc1Sc1ccccc1C(F)(F)F [Example 16, 3-Cyano-N-1,2,4-thiadiazol-5-yl-4-{[2-(trifluoromethyl)phenyl]thio}benzenesulfonamide] |
| 2.2 | N#Cc1cc(S(=O)(=O)Nc2ncns2)ccc1Sc1ccc(F)c(F)c1 [Example 17, 3-Cyano-4-[(3,4-difluorophenyl)thio]-N-1,2,4-thiadiazol-5-ylbenzenesulfonamide] |
| 0.07 | N#Cc1cc(S(=O)(=O)Nc2ncns2)ccc1Sc1ccc(C(F)(F)F)cc1-c1ccnnc1 [Example 18, 3-Cyano-4-{[2-pyridazin-4-yl-4-(trifluoromethyl)phenyl]thio}-N-1,2,4-thiadiazol-5-ylbenzenesulfonamide] |
| 0.045 | O=S(=O)(Nc1nncs1)c1cc(Cl)c(Sc2ccc(C(F)(F)F)cc2-c2ccnnc2)cc1F [Example 19, 5-Chloro-2-fluoro-4-{[2-pyridazin-4-yl-4-(trifluoromethyl)phenyl]thio}-N-1,3,4-thiadiazol-2-ylbenzenesulfonamide] |
| 0.033 | Nc1cc(-c2cc(C(F)(F)F)ccc2Sc2cc(F)c(S(=O)(=O)Nc3nncs3)cc2Cl)ccn1 [Example 20, 4-{[2-(2-Aminopyridin-4-yl)-4-(trifluoromethyl)phenyl]thio}-5-chloro-2-fluoro-N-1,3,4-thiadiazol-2-ylbenzenesulfonamide hydrochloride] |
| 0.0058 | COc1cc(C(F)(F)F)ccc1Cc1ccc(S(=O)(=O)Nc2ncns2)cc1C#N [Example 21, 3-Cyano-4-[2-methoxy-4-(trifluoromethyl)benzyl]-N-1,2,4-thiadiazol-5-ylbenzenesulfonamide] |
| 0.14 | N#Cc1cc(S(=O)(=O)Nc2ncns2)ccc1Cc1ccc(C(F)(F)F)cc1-c1ccnnc1 [Example 22, 3-Cyano-4-[2-pyridazin-4-yl-4-(trifluoromethyl)benzyl]-N-1,2,4-thiadiazol-5-ylbenzenesulfonamide] |
| 0.072 | Nc1cc(-c2cc(C(F)(F)F)ccc2Sc2cc(F)c(S(=O)(=O)Nc3ncccn3)cc2Cl)ccn1 [Example 24, 4-{[2-(2-Aminopyridin-4-yl)-4-(trifluoromethyl)phenyl]thio}-5-chloro-2-fluoro-N-pyrimidin-2-ylbenzenesulfonamide] |

Second part, the molecule before the results:

| SMILES | IC50 [µM] |
| --- | --- |
| O=S(=O)(Nc1nncs1)c1cc(Cl)c(Sc2cccc(C(F)(F)F)c2)cc1F [Example 1, 5-Chloro-2-fluoro-N-1,3,4-thiadiazol-2-yl-4-{[3-(trifluoromethyl)phenyl]thio}benzenesulfonamide] | 0.93 |
| COc1ccc(Sc2cc(F)c(S(=O)(=O)Nc3nncs3)cc2Cl)cc1 [Example 2, 5-Chloro-2-fluoro-4-[(4-methoxyphenyl)thio]-N-1,3,4-thiadiazol-2-ylbenzenesulfonamide] | 2.1 |
| COc1cccc(Sc2ccc(S(=O)(=O)Nc3ncns3)cc2C#N)c1 [Example 3, 3-Cyano-4-[(3-methoxyphenyl)thio]-N-1,2,4-thiadiazol-5-ylbenzenesulfonamide] | 1 |
| COc1cccc(Sc2cc(F)c(S(=O)(=O)Nc3nncs3)cc2Cl)c1 [Example 4, 5-chloro-2-fluoro-4-[(3-methoxyphenyl)thio]-N-1,3,4-thiadiazol-2-ylbenzenesulfonamide] | 1.9 |
| O=S(=O)(Nc1nncs1)c1cc(Cl)c(Sc2ccccc2C(F)(F)F)cc1F [Example 5, 5-chloro-2-fluoro-N-1,3,4-thiadiazol-2-yl-4-{[2-(trifluoromethyl)phenyl]thio}benzenesulfonamide] | 5.08 |
| O=S(=O)(Nc1nncs1)c1cc(Cl)c(Sc2cccc(F)c2)cc1F [Example 6, 5-chloro-2-fluoro-4-[(3-fluorophenyl)thio]-N-1,3,4-thiadiazol-2-ylbenzenesulfonamide] | 3.3 |
| O=S(=O)(Nc1nncs1)c1cc(Cl)c(Sc2ccccc2F)cc1F [Example 7, 5-chloro-2-fluoro-4-[(2-fluorophenyl)thio]-N-1,3,4-thiadiazol-2-ylbenzenesulfonamide] | 3.7 |
| COc1ccccc1Sc1cc(F)c(S(=O)(=O)Nc2nncs2)cc1Cl [Example 8, 5-chloro-2-fluoro-4-[(2-methoxyphenyl)thio]-N-1,3,4-thiadiazol-2-ylbenzenesulfonamide] | 0.25 |
| O=S(=O)(Nc1nncs1)c1cc(Cl)c(Sc2ccc(F)c(F)c2)cc1F [Example 9, 5-chloro-4-[(3,4-difluorophenyl)thio]-2-fluoro-N-1,3,4-thiadiazol-2-ylbenzenesulfonamide] | 2.3 |
| O=S(=O)(Nc1nncs1)c1cc(Cl)c(Sc2ccc(C(F)(F)F)cc2)cc1F [Example 10, 5-chloro-2-fluoro-N-1,3,4-thiadiazol-2-yl-4-{[4-(trifluoromethyl)phenyl]thio}benzenesulfonamide] | 5.2 |
| COc1ccc(Sc2ccc(S(=O)(=O)Nc3ncns3)cc2C#N)cc1 [Example 11, 3-cyano-4-[(4-methoxyphenyl)thio]-N-1,2,4-thiadiazol-5-ylbenzenesulfonamide] | > 3 |
| COc1ccccc1Sc1ccc(S(=O)(=O)Nc2ncns2)cc1C#N [Example 12, 3-cyano-4-[(2-methoxyphenyl)thio]-N-1,2,4-thiadiazol-5-ylbenzenesulfonamide] | 0.32 |
| N#Cc1cc(S(=O)(=O)Nc2ncns2)ccc1Sc1cccc(C(F)(F)F)c1 [Example 13, 3-cyano-N-1,2,4-thiadiazol-5-yl-4-{[3-(trifluoromethyl)phenyl]thio}benzenesulfonamide] | 0.84 |
